# Experimental data taken from publication PMC9645260, “Small-molecule inhibitors of P-Rex guanine-nucleotide exchange factors” (Small GTPases, 2022).
# Tests used:
# [1] = system: primary mouse neutrophils; experiment: Neutrophil ROS production, fMLP-stimulated; format: cell-based; details: 10 µM fMLP
# Description: Prex^−/− mice (Prex1^−/−Prex2^−/−) with general P-Rex deficiency were described previously and were compared to Prex^+/+ (Prex1^+/+Prex2^+/+) control mice on the same genetic background (C57Bl6/129Ola backcrossed seven times to C57Bl6). Mice were group-housed (up to 5) under specific opportunistic pathogen-free isolator conditions in Babraham’s small animal barrier facility that uses 12 h light/dark cycles with dusk and dawn settings, and were fed chow diet and water ad libitum. Mice from both sexes were used for experiments, at young-adult age (between 8 and 14 weeks), and were sex- and age-matched between genotypes within experiments. […]
# Mature primary neutrophils were isolated from the bone marrow of age- and sex-matched Prex^+/+ and Prex^−/− mice freshly each day at 4°C, using Percoll^Plus (GE Healthcare) gradient, as described, using endotoxin-free media throughout. Isolated neutrophils were 70–90% pure, as assessed by KwikDiff staining of cytospins. ROS production was measured by real-time chemiluminescence assay as described, except that neutrophils were incubated with PREX-in1 before the assay. […] Real-time ROS production was recorded in a Berthold MicroLumat Plus luminometer (Berthold Technologies) at 37°C, for 2.5 min with fMLP stimulation or for 10 min with PMA stimulation. […]
# [2] = system: PAE cells expressing eGFP-P-Rex1; experiment: PAE cell morphology after PDGF stimulation; format: cell-based, pig; details: 1 µM for 15 min
# Description: Pig aortic endothelial (PAE) cells, which stably overexpress PDGF receptor beta, were grown at 37°C in a humidified 5% CO2 atmosphere in Ham’s F-12 medium with L-glutamine (PAA) supplemented with 10% FBS, 100 units/ml penicillin and 100 µg/ml streptomycin (complete medium). Cells were passaged by tryptic digest 1:4 approximately every 2 days. PAE cells were transfected with eGFP-P-Rex1 by electroporation as described, resuspended in complete medium without antibiotics and plated onto sterile 22 mm glass coverslips in 6-well plates. After 12 h, cells were washed twice in Ham’s F-12 and serum starved in Ham’s F-12 containing 1% fatty acid-free BSA) for 8 h. PREX-in1 was added to the medium to a concentration of 1 µM, or cells were mock-treated with vehicle control (0.05% DMSO), for 15 min at 37°C. Cells were stimulated with 10 ng/ml PDGF for 10 min, or were mock-stimulated, and then fixed in 4% paraformaldehyde, 50 mM Pipes pH 6.8, 1 mM EGTA, 1 mM MgCl2 for 15 min at RT. Cells were washed in PBS, permeabilized for 10 min in PBS containing 0.2% Triton X-100, washed twice in PBS and once in PBS, 0.1% BSA. The F-actin cytoskeleton was stained by incubating samples with TRITC-Phalloidin (Sigma P1951) in PBS, 0.1% BSA for 45 min at RT in the dark. Coverslips were washed twice in PBS, rinsed once in water, and mounted onto slides using Aqua Polymount (Polysciences, Inc.). Samples were imaged using an AxioImager D2 fluorescence microscope (Zeiss, ×200 magnification), taking 15–20 representative images for each duplicate coverslip. Images were analysed blinded to experimental design using ImageJ, for both manual and automated analysis. Using manual analysis, each cell was assigned to a morphology category (basal, with lamellipodia and membrane ruffles, spread with ruffles). With automated analysis, the surface area and circularity of all cells were quantified using the ‘Set Measurements’ analysis tools of ImageJ after assigning a mask to each cell. To determine the proportion of spread cells, cells with a surface area more than 50% larger than the mean under basal conditions (1246 μm^2) were considered spread. eGFP-P-Rex1 expressing cells were compared to non-green fluorescent cells on the same coverslip.
structure (smiles),measurement,setting,value
"COc1ccc(-c2[nH]nc3c2C(c2ccc(-c4ccc(Cl)cc4)o2)C(C#N)=C(N)O3)cc1 (stereo not drawn) [PREX-in1, 6-amino-4-[5-(4-chlorophenyl)-2-furyl]-3-(4-methoxyphenyl)-2,4-dihydropyrano[2,3-c]pyrazole-5-carbonitrile]",inhibition at 1 µM,"[1]; Mus musculus, Neutrophil, 7 min, Prex+/+ neutrophils, 1 µM for 7 min, read-out: inhibition of ROS production overall",50%
same,effect on ROS response,"[1]; Prex-/- neutrophils, 1 µM",did not affect
same,morphology of mock-transfected cells,[2],did not affect the morphology
same,P-Rex1 dependent spreading of PDGF-stimulated cells,[2]; 10 ng/ml PDGF,did inhibit
same,cell circularity,[2]; automated analysis,lack of effect
same,proportion of cells with lamellipodia or membrane ruffles,[2]; manual analysis,did not affect the proportion of cells with lamellipodia or membrane ruffles
